Assay results as given in PubChem BioAssay AID2060508 (Molecular Pharmacology Branch, DTP, NCI, 2025).

System: 454973-116-R2-J3-PDC spheroids, viability, % test/control
Assay: Anticancer human tumor 454973-116-R2-J3-PDC patient-derived pancreatic carcinoma cell line growth inhibition [GQUAD]
Details: spheroids with HUVEC and MSC; for IC50: curve of first compound; for viability, T/C: stronger effect = lower value
Description: DNA G-quadruplex Stabilizer Agents in Combinations in Complex Spheroids
A high-throughput screen of multi-cell type tumor spheroids was designed to identify active combinations of DNA G-quadruplex stabilizer agents and targeted small molecules. Complex spheroids include a stromal component modeled by human endothelial cells (HUVEC) and fibroblasts modeled by human mesenchymal stem cells (MSCs). The concentration ranges selected for each drug and investigational agent were based upon clinically achievable concentrations if the clinical Cmax of the agent was known.
Compounds. The drugs and investigational agents: pidnarulex (CX-5461; NSC782164), APTO-253 (NSC789042), BRACO-19 (NSC847499), peposertib (NSC802822), ceralasertib (NSC780249), elimusertib (NSC800525), camonsertib (NSC841442), AZD-1390 (NSC803789), olaparib (NSC753686), talazoparib (NSC767125), ART-558 (NSC835418), sotorasib (NSC818433), MRTX-1133 (NSC836407), SN-38 (NSC673596), topotecan (NSC609699), etoposide (NSC141540), doxorubicin (NSC123127), gemcitabine (NSC613327), 5-fluorouracil (NSC19893), paclitaxel (NSC125973), vemurafenib (NSC761431), panobinostat (NSC761190), R-306465 (JNJ-16241199; NSC773264), adavosertib (NSC754352), TP-3654 (NSC805149), carboplatin (NSC241240), KSQ-4279 (NSC840948), and staurosporine (NSC755774) were obtained from the National Cancer Institute (NCI) Developmental Therapeutics Program Chemical Repository (34). The FDA-approved anticancer drug set is available from the NCI Developmental Therapeutics Program. […] The stock solutions were prepared in dimethyl sulfoxide (DMSO, Sigma-Aldrich, St. Louis, MO, cat. D2650) at 800-fold the tested concentration and stored at -70 degrees C prior to their use. All drugs and investigational agents were tested over a range starting from a high concentration at or near the clinical Cmax and decreasing in half-log increments. If the clinical Cmax for an agent had not been determined, the highest concentration tested was 10 microM.
2.3 Cell Culture. All cells were maintained in an incubator at 37 degrees C and 5% CO2 with 95% humidity. The PDC lines were cultured according to standard operating procedures established by the NCI PDMR. All PDCs were thawed and cultured in Matrigel-coated flasks prepared with a working solution of 1X Ham's F-12 nutrient mix, without supplementation (Invitrogen, cat. 11765054), 100 U/mL penicillin-streptomycin (Invitrogen, cat. 15140122), and 2.5% Matrigel (Corning Inc., cat. 354248) for the first three passages. The 857933-349-R-J2-PDC line was cultured in 6C/Colon 1B media, which includes advanced DMEM/F-12 (Thermo Fisher Scientific, cat. 12634028), 10 mM HEPES (Thermo Fisher Scientific, cat. 15630080), 1X GlutaMAX supplement (Thermo Fisher Scientific, cat. 35050061), 0.1 mg/mL primocin (InvivoGen, cat. ant-pm-2), 10% defined fetal bovine serum, heat inactivated (HyClone Laboratories Inc., cat. SH30070.03HI), 50% L-WRN conditioned media (ATCC, cat. CRL-3276), 1.25 mM N-Acetyl-L-cysteine (Sigma-Aldrich, cat. A9165), 10 mM nicotinamide (Sigma-Aldrich, cat. N0636), 1X B-27 supplement (Thermo Fisher Scientific, cat. 17504044), 1X N-2 supplement (Thermo Fisher Scientific, cat. 17502048), 10 microM Y-27632 dihydrochloride (Tocris Bioscience, cat. 1254), and 50 ng/mL human EGF recombinant protein (Thermo Fisher Scientific, cat. PHG0311). The 485176-168-R4-J1-PDC line was cultured in Panc media, which includes all 6C/Colon 1B media components plus 100 ng/mL human FGF-10 (Thermo Fisher Scientific, cat. 100-26), 500 nM SB-431542 (Selleckchem, cat. S1067), and gastrin (Tocris, cat. 3006).
[…]

[1] = second compound 0.0316 µM, first compound 0.0316 µM
[2] = second compound 0.0316 µM, first compound 0.1 µM
[3] = second compound 0.0316 µM, first compound 0.316 µM
[4] = second compound 0.0316 µM, first compound 1 µM
[5] = second compound 0.0316 µM, first compound 3.16 µM
[6] = second compound 0.0316 µM, first compound 10 µM
[7] = second compound 0.1 µM, first compound 0.0316 µM
[8] = second compound 0.1 µM, first compound 0.1 µM
[9] = second compound 0.1 µM, first compound 0.316 µM
[10] = second compound 0.1 µM, first compound 1 µM
[11] = second compound 0.1 µM, first compound 3.16 µM
[12] = second compound 0.1 µM, first compound 10 µM
[13] = second compound 0.316 µM, first compound 0.0316 µM
[14] = second compound 0.316 µM, first compound 0.1 µM
[15] = second compound 0.316 µM, first compound 0.316 µM
[16] = second compound 0.316 µM, first compound 1 µM
[17] = second compound 0.316 µM, first compound 3.16 µM
[18] = second compound 0.316 µM, first compound 10 µM
[19] = second compound 1 µM, first compound 0.0316 µM
[20] = second compound 1 µM, first compound 0.1 µM
[21] = second compound 1 µM, first compound 0.316 µM
[22] = second compound 1 µM, first compound 1 µM
[23] = second compound 1 µM, first compound 3.16 µM
[24] = second compound 1 µM, first compound 10 µM
[25] = second compound 3.16 µM, first compound 0.0316 µM
[26] = second compound 3.16 µM, first compound 0.1 µM
[27] = second compound 3.16 µM, first compound 0.316 µM
[28] = second compound 3.16 µM, first compound 1 µM
[29] = second compound 3.16 µM, first compound 3.16 µM
[30] = second compound 3.16 µM, first compound 10 µM
[31] = second compound 10 µM, first compound 0.0316 µM
[32] = second compound 10 µM, first compound 0.1 µM
[33] = second compound 10 µM, first compound 0.316 µM
[34] = second compound 10 µM, first compound 1 µM
[35] = second compound 10 µM, first compound 3.16 µM
[36] = second compound 10 µM, first compound 10 µM
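Note: spheroids exposed to compounds for seven days.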

CC1COCCN1c1cc(C2(S(C)(=N)=O)CC2)nc(-c2ccnc3[nH]ccc23)n1 (centres undefined) + CN(C)c1ccc(Nc2c3ccc(NC(=O)CCN4CCCC4)cc3nc3cc(NC(=O)CCN4CCCC4)ccc23)cc1
IC50 (second compound 0.0316 µM): 5.38 µM
IC50 (second compound 0.1 µM): 5.35 µM
IC50 (second compound 0.316 µM): 5.98 µM
IC50 (second compound 1 µM): 5.14 µM
IC50 (second compound 3.16 µM): 6.07 µM
IC50 (second compound 10 µM): 5.84 µM
viability, T/C [1]: 110%
viability, T/C [2]: 105%
viability, T/C [3]: 105%
viability, T/C [4]: 102%
viability, T/C [5]: 64.1%
viability, T/C [6]: 33.5%
viability, T/C [7]: 109%
viability, T/C [8]: 99.4%
viability, T/C [9]: 115%
viability, T/C [10]: 108%
viability, T/C [11]: 62.9%
viability, T/C [12]: 34.5%
viability, T/C [13]: 104%
viability, T/C [14]: 103%
viability, T/C [15]: 99.8%
viability, T/C [16]: 100%
viability, T/C [17]: 71.1%
viability, T/C [18]: 33%
viability, T/C [19]: 94.4%
viability, T/C [20]: 95.1%
viability, T/C [21]: 110%
viability, T/C [22]: 77.2%
viability, T/C [23]: 63.9%
viability, T/C [24]: 34.3%
viability, T/C [25]: 89%
viability, T/C [26]: 90.8%
viability, T/C [27]: 90.1%
viability, T/C [28]: 82.8%
viability, T/C [29]: 66.2%
viability, T/C [30]: 37.7%
viability, T/C [31]: 80.5%
viability, T/C [32]: 82.1%
viability, T/C [33]: 83.7%
viability, T/C [34]: 78.4%
viability, T/C [35]: 59.8%
viability, T/C [36]: 41.5%

COc1ccc([C@@H](O)c2cc(-c3ncnc4cc(N5CCOCC5)ccc34)c(F)cc2Cl)nn1 + CN(C)c1ccc(Nc2c3ccc(NC(=O)CCN4CCCC4)cc3nc3cc(NC(=O)CCN4CCCC4)ccc23)cc1
IC50 (second compound 0.0316 µM): > 10 µM
IC50 (second compound 0.1 µM): > 10 µM
IC50 (second compound 0.316 µM): 9.2 µM
IC50 (second compound 1 µM): 6.56 µM
IC50 (second compound 3.16 µM): 5.39 µM
IC50 (second compound 10 µM): 2.89 µM
viability, T/C [1]: 101%
viability, T/C [2]: 94.6%
viability, T/C [3]: 96.3%
viability, T/C [4]: 82.8%
viability, T/C [5]: 69.1%
viability, T/C [6]: 55.7%
viability, T/C [7]: 112%
viability, T/C [8]: 98.5%
viability, T/C [9]: 101%
viability, T/C [10]: 82.9%
viability, T/C [11]: 65.5%
viability, T/C [12]: 51.5%
viability, T/C [13]: 93.3%
viability, T/C [14]: 91.5%
viability, T/C [15]: 89.1%
viability, T/C [16]: 76.1%
viability, T/C [17]: 66.5%
viability, T/C [18]: 48.5%
viability, T/C [19]: 89.5%
viability, T/C [20]: 86.3%
viability, T/C [21]: 88.2%
viability, T/C [22]: 76.6%
viability, T/C [23]: 59.4%
viability, T/C [24]: 44.7%
viability, T/C [25]: 86.1%
viability, T/C [26]: 91.2%
viability, T/C [27]: 85.2%
viability, T/C [28]: 68.9%
viability, T/C [29]: 59.9%
viability, T/C [30]: 40.7%
viability, T/C [31]: 76.6%
viability, T/C [32]: 68.2%
viability, T/C [33]: 81.9%
viability, T/C [34]: 61.4%
viability, T/C [35]: 50%
viability, T/C [36]: 27.6%
